Source: US20090142363A1, “CYTOTOXIC T-CELL EPITOPE PEPTIDE AND USE THEREOF” (priority 2005, published 2009)
No end group written: not given here.

Columns and labels:
Type in all cases: cell-based, human
[1] = system: PBMCs of healthy adults reactive to the anti-HLA-A*24 antibody; assay: Induction of specific CTLs from PBMCs, method for quantifying cells producing intracellular IFNγ; set-up: key to specific CTL induction, cytokine quantification method: ∘: “open circle” indicates that the use of a candidate peptide enabled specific CTLs to be induced; x: “cross” indicates that specific CTLs was unable to be induced; conditions: for CD8-positive, IFNγ-positive (producing) cells in UR: restimulation with the same peptide as used in the induction, % in PBMCs; for peptide-specific cytokine production in PBMCs derived from ten people with HLA-A*24 molecule: summary of Table 2; for number of persons with peptide-specific IFNγ production / CTL induction: ten persons tested
Description: This induction method induces CTLs by adding peptides to culture media of PBMCs. Peptides are presented on antigen-presenting cells present among PBMCs, such as dendritic cells, B cells, macrophages, and certain types of T cells, whereby CTL precursor cells in PBMCs are stimulated to proliferate.
Peripheral blood collected from healthy adults that were reactive to the anti-HLA-A*24 antibody was centrifuged at 3,000 rpm for 5 to 10 minutes. The resulting supernatant plasma was collected. The non-plasma portion was processed according to a conventional method to isolate PBMCs. The characteristic of the present method is the addition of several % of plasma to an induction medium. In the present invention, a favorable result was obtained by adding 5% plasma. The medium is prepared by adding appropriate additives and antibiotics to a medium commonly used for cell culture. The CTL induction medium used in the present invention was RPMI1640 Hepes modify (Sigam) supplemented with 2-mercapotethanol, L-glutamine, and the antibiotics streptomycin and penicillin. In addition to these, insulin, transferrin, selenious acid, pyruvic acid, human serum albumin, solution of non-essential amino acids, and the like may be added. 1 to 3×10^6 PBMCs were suspended in 1 to 2.5 ml of the culture medium. A candidate peptide was added to the cells at a concentration of 1 to 20 μg/ml. The concentration of peptide can be altered depending on the solubility of the peptide. The peptide was added at 10 μg/ml. After two days, IL-2 was added at a final concentration of 20 to 100 U/ml. Round-bottomed culture dishes that allow the exchange of carbon dioxide gas are preferably used to co-culture PBMCs with peptides. In the context of the present invention, 14-ml round-bottomed polypropylene tubes (Becton Dikinson) or 96-well U-bottomed cell culture microtest plates (Becton Dikinson) were used. The adenovirus-specific CTLs were confirmed after about two and four weeks of culture. The cells were stimulated again with the peptide at 10 μg/ml after about two weeks of culture. When the induction of adenovirus-specific CTLs was confirmed, the cells were further stimulated with peptide-pulsed antigen-presenting cells to establish CTL lines.
Approximately 1/10 to all of the cells induced by the above-described method were transferred into 96-well U-bottomed cell culture microtest plates, and the peptide used for the induction was added thereto at a final concentration of 0.01 to 0.05 μg/ml. Then, an intracellular protein transport inhibitor (for example, brefeldin A, monensin, or such) was added, and the cells were cultured in a 5% CO2 incubator at 37° C. for 5 to 16 hours. After culture, the cells were washed, and phycoerythrin (PE)-labeled MHC-tetramer reagent and phycoerythrin-Cy5(PC5)-labeled CD8 antibody (Beckman Coulter) were added thereto. The resulting mixture was allowed to stand at room temperature for 15 to 30 minutes. After washing, the cells were fixed with 4% formaldehyde at 4° C. for 15 minutes and washed with an excess amount of washing solution. After membrane permeabilization treatment with 0.1% saponin, an FITC-labeled anti-IFNγ antibody (Beckman Coulter) was added, and reacted at room temperature for 15 to 30 minutes. After washing, the proportion of IFNγ-positive cells in T cells or MHC-tetramer reagent-positive cells was determined using a flow cytometer.
PBMCs derived from ten people with HLA-A*24 molecule were tested using 10 types of peptides. […] Thus, these six types of candidate epitope peptides serve as adenovirus-specific CTL epitope peptides. Since the adenovirus-specific CTL epitope peptides have the HLA-A*24-binding motif, they are likely to be HLA-A*2402-restricted epitope peptides, which are carried by 60% or more of the Japanese people. In the context of the results described above, MHC-tetramer reagents were synthesized using five types of epitope peptides, and their utility was tested.

[2] = system: CTLs with target cells expressing HLA-A*24 molecules; assay: Confirmation of CTLs by ELISPOT assay (IFNγ spots); conditions: FIG. 4
Description: A commercially available ELISPOT assay kit (for example, MABTECH Co.) may be purchased, and the assay can be performed according to the manufacturer's protocol. Alternatively, the assay may also be carried out by the following procedure. 96-well MultiScreen-HA plates (Millipore Co.) were coated with an anti-IFNγ monoclonal antibody (R&D Systems Co.) at 4° C. for overnight. Each well was washed with PBS. Target cells were plated into each well. Any cells expressing HLA-A*24 molecules on their surface can be used as the target cells. For example, T2-A24, a cultured cell which a gene of HLA-A*24 molecule is introduced into a 174CEM.T2 cell, can be used. Alternatively, EBV-infected LCLs expressing HLA-A*24 molecules on their surface can be used as the target cells. These target cells were added into each well with a candidate peptide for adenovirus-specific CTL epitopes or a negative control (HIV) peptide. The mixtures were allowed to stand at room temperature for 30 minutes. Then, an adequate number of CTLs were added, and the mixtures were cultured in a 5% CO2 incubator at 37° C. for 20 hours. CTLs that responded to the candidate epitope peptide secreted IFNγ during this culture period, and the IFNγ bound to the anti-IFNγ monoclonal antibody that was coated on the plates. After culturing was completed, the plates were washed with PBS containing 0.05% Tween-20. Then, an anti-IFNγ polyclonal antibody (Genzyme Co.) and peroxidase-labeled goat anti-rabbit IgG serum were allowed to react in this order at room temperature for 90 minutes each. Furthermore, 3-amino-9-ethylcarbasole (Sigma), a peroxidase substrate, and 0.1M sodium acetate buffer (pH 5.0) containing 0.015% H2O2 was added to each well, and the plates were incubated at room temperature for 40 minutes to visualize the IFNγ spots. The spots were counted under a stereomicroscope.
The spots were counted under a stereomicroscope, and were plotted on a graph.

[3] = system: CTL line induced by TYF (PBMCs from ID*24-8); assay: Cross-reactivity of the TYF-induced CTL line to the subgroup C-specific CTL epitope; conditions: PBMCs from ID*24-8 stimulated with TYF for 13 days
Excerpt: As shown in FIG. 11-4, there are amino acid mutations at the fourth and sixth positions in TYF identified in the present invention as compared to the subgroup C-specific CTL epitopes. Thus, the cross-reactivity to subgroup C-specific CTL epitope ([…] (SEQ ID NO: 14); mutated amino acids are underlined) (Leen A M, Sili U, Vanin E F, Jewell A M, Xie W, Vignali D, Piedra P A, Brenner M K, Rooney C M. Conserved CTL epitopes on the adenovirus hexon protein expand subgroup cross-reactive and subgroup-specific CD8+ T cells. Blood. 104:2432-2440 (2004)) was examined using a CTL line induced by TYF.
PBMCs prepared from ID*24-8 were stimulated with TYF for 13 days, and then restimulated with TYF or […] (SEQ ID NO: 14) to examine whether the CTL line produces IFNγ.

[4] = system: peripheral blood / PBMCs / peptide-induced CTL lines of HLA-A*24 donors; assay: Staining of peripheral blood, PBMCs or peptide-induced CTL lines with MHC-tetramer reagents
Description: MBL Co. where the present inventors are affiliated with has acquired exclusive patent licensing rights in Japan for MHC-tetramer reagents (U.S. Pat. No. 5,635,363; French Application No. FR9911133; and U.S. Pat. Nos. 5,723,584, 5,874,239, 5,932,433, and 6,265,552) from Beckman Coulter Co. Based on the patents, PE-labeled MHC-tetramer reagents were prepared using adenovirus-specific CTL epitope peptides and HLA-A*2402 molecules.
Adenovirus-specific CTLs quantification was carried out using MHC-tetramer reagents that was prepared using CTL epitope peptides of the present invention, with peripheral blood, PBMCs isolated from peripheral blood, CTL lines induced using CTL epitope peptides as samples. Examples of quantification using PE-labeled MHC-tetramer reagents are described below. Labelling dyes may be used in an appropriate combination depending on the type of flow cytometer to be used, and is not limited to the examples described below.
Ten μl of a PE-labeled MHC-tetramer reagent, 20 μl of an FITC-labeled antibody for T cell (for example, CD8, CD4, or CD3), and such were added to 200 μl of collected peripheral blood. A CD45 antibody labeled with PC5 or such may also be added to eliminate nonspecific fluorescence due to contaminated erythrocytes. After gentle mixing, the mixture was allowed to stand at room temperature for 30 minutes. OptiLyse B was added, and erythrolysis and fixation was carried out according to the manufacturer's protocol. Two ml of PBS was added, stirred, and the cells were centrifuged at 400×g for 5 minutes. After the supernatant was removed by aspiration, the cells were resuspended in 500 μl of PBS and analyzed using a flow cytometer within 24 hours.
Ten μl of a PE-labeled MHC-tetramer reagent, 20 μl of an FITC-labeled T cell surface antibody (for example, CD8, CD4, or CD3), and such were added to an appropriate amount of PBMCs (10^5 to 10^6 cells) or a CTL line induced by use of CTL epitope peptides. A CD45 antibody labeled with PC5 or such may also be added to eliminate nonspecific fluorescence due to contaminated erythrocytes. After gentle mixing, the cells were allowed to stand at room temperature for 30 minutes. Three ml of PBS was added, stirred, and the cells were centrifuged at 400×g for 5 minutes. After the supernatant was removed by aspiration, the cells were resuspended in 500 μl of PBS. When a CTL line is used, 7-AAD Viability Dye (Non-viable cell detection reagent; MBL Co.) may be added to eliminate nonspecific fluorescence caused by non-viable cells. The cells were analyzed using a flow cytometer within 24 hours.
The results of staining obtained using the five types of MHC-tetramer reagents used to prepare the peptide-induced CTL lines are shown in FIG. 5.

Sequence | CD8-positive, IFNγ-positive (producing) cells in UR ([1]; donor *24-12) | specific CTL induction, cytokine quantification method ([1]; donor ID *24-1) | specific CTL induction, cytokine quantification method ([1]; donor ID *24-2) | specific CTL induction, cytokine quantification method ([1]; donor ID *24-3) | specific CTL induction, cytokine quantification method ([1]; donor ID *24-5) | specific CTL induction, cytokine quantification method ([1]; donor ID *24-8) | specific CTL induction, cytokine quantification method ([1]; donor ID *24-10) | specific CTL induction, cytokine quantification method ([1]; donor ID *24-11) | specific CTL induction, cytokine quantification method ([1]; donor ID *24-12) | specific CTL induction, cytokine quantification method ([1]; donor ID *24-13) | specific CTL induction, cytokine quantification method ([1]; donor ID *24-14) | peptide-specific cytokine production in PBMCs derived from ten people with HLA-A*24 molecule [1] | number of persons with peptide-specific IFNγ production / CTL induction [1] | IFNγ spots in ELISPOT assay compared with the negative control (HIV) peptide [2] | further results
LYSNVALYL | 2.95% | x | x | x | x | x | x | x | ∘ | ∘ | x | induce cytokine production in a peptide-specific manner | two of the ten persons | IFNγ spots were observed | specific CTL induction confirmed by CD8-positive, IFNγ-positive cells versus HIV peptide ([1]; donor ID*24-12, FIG. 3e-h): specific CTL induction was confirmed
TYFSLNNKF (An artificially synthesized epitope peptide sequence) [reference compound] | – | – | – | – | – | – | – | – | – | – | – | – | – | – | IFNγ production of the CTL line induced by TYF on restimulation with the named peptide [3]: did not produce IFNγ; CD8-positive and TYF-Tet-positive cells ([3]; restimulated with the named peptide): 1.97%
LYANSAHAL | – | x | x | ∘ | x | ∘ | x | x | x | x | x | induce cytokine production in a peptide-specific manner | – | IFNγ spots were observed | specific CTL induction confirmed by CD8-positive, IFNγ-positive cells versus HIV peptide ([1]; donor ID*24-8, FIG. 3a-d): induced specific CTLs
TYPVLEEMF [EBV BRLF1, reference compound] | 9.57% | ∘ | ∘ | ∘ | x | ∘ | ∘ | ∘ | ∘ | ∘ | ∘ | – | nine of ten persons | – | CD8-positive, IFNγ-positive (producing) cells in UR ([1]; donor *24-8): 24.9%; specific CTLs (CD8-positive MHC-tetramer reagent-positive cells, UR) ([4]; donor ID*24-2, 13 days stimulation with the peptide, then HIV peptide added, % of whole viable cells): 13.0%; positive rate: CD8-positive, MHC-tetramer reagent-positive cells to viable cells ([4]; donor ID*24-8, PBMCs cultured with the epitope peptide for 10 days (day 10)): 15.6%; positive rate: CD8-positive, MHC-tetramer reagent-positive cells to viable cells ([4]; donor ID*24-8, immediately after blood collection (day 0)): 0.03%; increase of the positive rate from day 0 to day 10 ([4]; donor ID*24-8, ten days of culture with the peptide): about 520 times
